# From patent publication US12448373B2, “Azetidinyl-acetamides as CXCR7 inhibitors” (CHEMOCENTRYX, INC., priority 2021, dated 2025)
# Biological target: T1, CXCR7 (Homo sapiens, UniProt P25106)
# T1 construct: expressed in transfected cells; host or cells: CHO cells (CHO-CXCR7), transgenes maintained with Hygromycin B and G418
# Assay: CXCR7 β-arrestin recruitment assay in CHO-CXCR7 cells (ProLink/EA β-galactosidase complementation), induced by human SDF-1a
# Format: cell-based
# Details: assay buffer, SDF-1a at EC50 concentration
# Procedure: CXCR7 is fused in frame with a small enzyme donor fragment ProLink and co-expressed in CHO cells stably expressing a fusion protein of β-arrestin and the larger, N-terminal deletion mutant of β-galactosidase (called enzyme acceptor or EA). Activation of the CXCR7 stimulates binding of β-arrestin to the ProLink-tagged CXCR7 and forces complementation of the two enzyme fragments, resulting in the formation of an active β-galactosidase enzyme. The β-galactosidase enzyme activity is measured with a substrate that generates fluorescence.
# CHO-CXCR7 cells (0.22×10^6/mL) were cultured in growth medium (Ham's F-12 medium with 10% fetal bovine serum (FBS)), Hygromycin B (200 ug/mL) and G418 (250 ug/mL) were used to maintain the transgenes. The day before the assay, the cells were detached from culture dishes with 0.25% trypsin-EDTA (Corning, Catalog No. 25-053-CI), plated into 96 well plate (2.2×10^5 cells/mL, 100 μL/well) and incubated overnight at 37° C. with 5% CO2. On the day of the assay, cell culture medium was removed and 100 uL of assay buffer (PBS or FBS) was added to each well. 1 μL of compound that were serially diluted in DMSO was added to each well. 5 μL of human SDF-la (Pepro Tech, Catalog No. 300-28A, at EC50 concentration pre-determined on the same day) was then added and mixed to induce CXCR7-mediated β-arrestin recruitment. The plates were incubated for 1.5 hours at 37° C. The assay buffer was removed, 100 μL substrate solution was added and the reaction was carried out at 37° C. for 30 minutes. The substrate solution was prepared by mixing 100 mL Phosphate Buffer (1M, Sigma, Catalog No. P3619-1GA), 100 mL 10% Triton X 100 (Sigma, Catalog No. T8787.), 5 mL MgCl2 (1M, Sigma, Catalog No. M1028), 1.5 mL, β-mercaptoethanol (Gibco, Catalog No. 21985-023.). 3-carboxyumbelliferyl β-D-galactopyranoside (ThermoFisher Scientific, Catalo No. F2905) was added at 0.4 mM right before use. The reaction was then stopped by adding 50 μL of Stop Solution (2.1% w/v Na2CO3) to each well. Fluorescence intensity was measured with a FlexStation 3 microplate reader (Molecular Devices) with the following setting—excitation: 360 nm, emission: 465 nm, manual Gain: 55. IC50 values were calculated with GraphPad Prism using 3 parameter nonlinear regression.
# T1 sequence (P25106 whole entry): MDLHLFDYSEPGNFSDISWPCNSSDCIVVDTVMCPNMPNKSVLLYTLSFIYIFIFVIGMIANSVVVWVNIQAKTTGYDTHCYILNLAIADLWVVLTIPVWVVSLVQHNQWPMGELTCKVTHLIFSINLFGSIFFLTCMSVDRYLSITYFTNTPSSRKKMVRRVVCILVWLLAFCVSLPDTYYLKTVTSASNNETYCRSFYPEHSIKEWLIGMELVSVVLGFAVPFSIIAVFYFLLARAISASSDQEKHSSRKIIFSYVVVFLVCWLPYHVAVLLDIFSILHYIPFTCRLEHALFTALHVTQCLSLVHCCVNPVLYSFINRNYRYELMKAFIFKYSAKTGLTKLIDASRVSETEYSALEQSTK
row,SMILES,IC50
1,CC(C)(F)CN1CC(CC(=O)NC(C)(C)c2ccccn2)(NC(=O)c2cc(-c3ccc(F)cc3F)on2)C1 [Example 1.104],1000 to 20000 nM
2,CC(C)(NC(=O)CC1(NC(=O)c2cc(-c3ccc(F)cc3F)on2)CN([C@H]2CC[C@@](C)(C(=O)O)CC2)C1)c1ccccn1 [Example 1.107],1000 to 20000 nM
3,CC(C)(NC(=O)CC1(NC(=O)c2cc(-c3ccc(F)cc3F)on2)CN([C@H]2CC[C@](C)(C(=O)O)CC2)C1)c1ccccn1 [Example 1.108],100 to 1000 nM
4,C[C@]1(O)CC[C@@H](N2CC(CC(=O)NCc3cccc(Cl)c3)(NC(=O)c3cc(-c4ccc(F)cc4F)on3)C2)CC1 [Example 1.109],100 to 1000 nM
5,Cc1cc(C(C)(C)NC(=O)CC2(NC(=O)c3cc(-c4ccc(F)cc4F)on3)CN(C3CCC(C)(O)CC3)C2)cc(C)n1 (stereo not shown) [Example 1.111],5 to 100 nM
6,Cc1cc(C(C)(C)NC(=O)CC2(NC(=O)c3cc(-c4ccc(F)cc4F)on3)CN([C@H]3CC[C@](C)(O)CC3)C2)cc(C)n1 [Example 1.112],5 to 100 nM
7,CC(C)(NC(=O)CC1(NC(=O)c2cc(-c3ccc(F)cc3F)on2)CN([C@H]2CC[C@](C)(O)CC2)C1)c1cccc2cc[nH]c12 [Example 1.116],< 5 nM
8,COc1cccc(C(C)(C)NC(=O)CC2(NC(=O)c3cc(-c4ccc(F)cc4F)on3)CN(CC3CC3)C2)c1 [Example 1.117],100 to 1000 nM
9,COc1cc(C)cc(C(C)(C)NC(=O)CC2(NC(=O)c3cc(-c4ccc(F)cc4F)on3)CN([C@H]3CC[C@](C)(O)CC3)C2)c1 [Example 1.119],5 to 100 nM
10,Cc1cccc(C(C)(C)NC(=O)CC2(NC(=O)c3cc(-c4ccc(F)cc4F)on3)CN([C@H]3CC[C@](C)(O)CC3)C2)n1 [Example 1.121],< 5 nM
11,CC(C)(NC(=O)CC1(NC(=O)c2cc(-c3ccc(F)cc3F)on2)CN([C@H]2CC[C@@](C)(O)CC2)C1)c1cc(F)cc(Cl)c1 [Example 1.123],< 5 nM
12,CC(C)(NC(=O)CC1(NC(=O)c2cc(-c3ccc(F)cc3F)on2)CN([C@H]2CC[C@](C)(O)CC2)C1)c1cc(F)cc(Cl)c1 [Example 1.124],< 5 nM
13,CC(C)CN1CC(CC(=O)NC(C)(C)c2ccccn2)(NC(=O)c2cc(-c3ccc(F)cc3F)on2)C1 [Example 1.129],5 to 100 nM
14,Cc1cc(C)nc(C(C)(C)NC(=O)CC2(NC(=O)c3cc(-c4ccc(F)cc4F)on3)CN(CC3(C)COC3)C2)n1 [Example 1.131],1000 to 20000 nM
15,CC(C)(O)CN1CC(CC(=O)NC(C)(C)c2cc(F)cc(F)c2)(NC(=O)c2cc(-c3ccc(F)cc3F)on2)C1 [Example 1.137],5 to 100 nM
16,CC(C)(O)CN1CC(CC(=O)NC(C)(C)c2ccc(Cl)cc2)(NC(=O)c2cc(-c3ccc(F)cc3F)on2)C1 [Example 1.138],100 to 1000 nM
17,Cc1cncc(C(C)(C)NC(=O)CC2(NC(=O)c3cc(-c4ccc(F)cc4F)on3)CN([C@H]3CC[C@@](C)(O)CC3)C2)c1 [Example 1.139],5 to 100 nM
18,Cc1cncc(C(C)(C)NC(=O)CC2(NC(=O)c3cc(-c4ccc(F)cc4F)on3)CN([C@H]3CC[C@](C)(O)CC3)C2)c1 [Example 1.140],5 to 100 nM
19,COc1cncc(C(C)(C)NC(=O)CC2(NC(=O)c3cc(-c4ccc(F)cc4F)on3)CN([C@H]3CC[C@](C)(O)CC3)C2)c1 [Example 1.142],5 to 100 nM
20,CC(C)(NC(=O)CC1(NC(=O)c2cc(-c3ccc(F)cc3F)on2)CN([C@H]2CC[C@@](C)(O)CC2)C1)c1cccc(C2CC2)c1 [Example 1.143],5 to 100 nM
21,CC(C)(NC(=O)CC1(NC(=O)c2cc(-c3ccc(F)cc3F)on2)CN([C@H]2CC[C@](C)(O)CC2)C1)c1cccc(C2CC2)c1 [Example 1.144],5 to 100 nM

# Now from value to compound:
row,IC50,SMILES
1,5 to 100 nM,C[C@]1(O)CC[C@H](N2CC(CC(=O)NC3(c4cccc(Cl)c4)COC3)(NC(=O)c3cc(-c4ccc(F)cc4F)on3)C2)CC1 [Example 1.103]
2,< 5 nM,CC1(C)CCC(N2CC(CC(=O)NC(C)(C)c3cc(Cl)cc(Cl)c3)(NC(=O)c3cc(-c4ccc(F)cc4F)on3)C2)CC1 [Example 1.105]
3,< 5 nM,Cc1cc(C)nc(C(C)(C)NC(=O)CC2(NC(=O)c3cc(-c4ccc(F)cc4F)on3)CN([C@H]3CC[C@](C)(O)CC3)C2)c1 [Example 1.106]
4,1000 to 20000 nM,C[C@]1(O)CC[C@H](N2CC(CC(=O)NCc3cccc(Cl)c3)(NC(=O)c3cc(-c4ccc(F)cc4F)on3)C2)CC1 [Example 1.110]
5,5 to 100 nM,CC(C)(NC(=O)CC1(NC(=O)c2cc(-c3ccc(F)cc3F)on2)CN(CC2CC2)C1)c1cccc(Cl)c1 [Example 1.113]
6,5 to 100 nM,Cc1cc(C(C)(C)NC(=O)CC2(NC(=O)c3cc(-c4ccc(F)cc4F)on3)CN(CC3CC3)C2)ccn1 [Example 1.114]
7,< 5 nM,CC(C)(NC(=O)CC1(NC(=O)c2cc(-c3ccc(F)cc3F)on2)CN([C@H]2CC[C@@](C)(O)CC2)C1)c1cccc2cc[nH]c12 [Example 1.115]
8,5 to 100 nM,COc1cc(C)cc(C(C)(C)NC(=O)CC2(NC(=O)c3cc(-c4ccc(F)cc4F)on3)CN([C@H]3CC[C@@](C)(O)CC3)C2)c1 [Example 1.118]
9,5 to 100 nM,CC(C)CN1CC(CC(=O)NC(C)(C)c2cccc(Cl)c2)(NC(=O)c2cc(-c3ccc(F)cc3F)on2)C1 [Example 1.120]
10,5 to 100 nM,Cc1cc(C(C)(C)NC(=O)CC2(NC(=O)c3cc(-c4ccc(F)cc4F)on3)CN(CC(C)C)C2)ccn1 [Example 1.122]
11,5 to 100 nM,Cn1ccc2c(C(C)(C)NC(=O)CC3(NC(=O)c4cc(-c5ccc(F)cc5F)on4)CN([C@H]4CC[C@@](C)(O)CC4)C3)cccc21 [Example 1.125]
12,5 to 100 nM,Cn1ccc2c(C(C)(C)NC(=O)CC3(NC(=O)c4cc(-c5ccc(F)cc5F)on4)CN([C@H]4CC[C@](C)(O)CC4)C3)cccc21 [Example 1.126]
13,1000 to 20000 nM,C[C@]1(O)CC[C@@H](N2CC(CC(=O)NCc3ccccc3)(NC(=O)c3cc(-c4ccc(F)cc4F)on3)C2)CC1 [Example 1.127]
14,1000 to 20000 nM,C[C@]1(O)CC[C@H](N2CC(CC(=O)NCc3ccccc3)(NC(=O)c3cc(-c4ccc(F)cc4F)on3)C2)CC1 [Example 1.128]
15,1000 to 20000 nM,CC1(CN2CC(CC(=O)NC(C)(C)c3cccc(C(F)(F)F)n3)(NC(=O)c3cc(-c4ccc(F)cc4F)on3)C2)COC1 [Example 1.130]
16,< 5 nM,CC(C)(NC(=O)CC1(NC(=O)c2cc(-c3ccc(F)cc3F)on2)CN([C@H]2CC[C@@](C)(O)CC2)C1)c1cc(Cl)ccc1F [Example 1.132]
17,< 5 nM,CC(C)(NC(=O)CC1(NC(=O)c2cc(-c3ccc(F)cc3F)on2)CN([C@H]2CC[C@](C)(O)CC2)C1)c1cc(Cl)ccc1F [Example 1.133]
18,5 to 100 nM,CC(C)(O)CN1CC(CC(=O)NC(C)(C)c2cc(Cl)ccc2F)(NC(=O)c2cc(-c3ccc(F)cc3F)on2)C1 [Example 1.134]
19,100 to 1000 nM,CC(C)(NC(=O)CC1(NC(=O)c2cc(-c3ccc(F)cc3F)on2)CN(CC2COC2)C1)c1cccc(Cl)c1 [Example 1.135]
20,100 to 1000 nM,Cc1cc(C(C)(C)NC(=O)CC2(NC(=O)c3cc(-c4ccc(F)cc4F)on3)CN(CC3COC3)C2)ccn1 [Example 1.136]
21,5 to 100 nM,COc1cncc(C(C)(C)NC(=O)CC2(NC(=O)c3cc(-c4ccc(F)cc4F)on3)CN([C@H]3CC[C@@](C)(O)CC3)C2)c1 [Example 1.141]
22,5 to 100 nM,CC(C)(O)CN1CC(CC(=O)NC(C)(C)c2cccc(C#N)c2)(NC(=O)c2cc(-c3ccc(F)cc3F)on2)C1 [Example 1.145]
